Common to all, as to type: biochemical
The target of one assay is JAK1 kinase domain (Homo sapiens (Human), UniProt P23458). Briefly: JAK1 inhibition assay (Caliper LabChip, isolated kinase domain). The note with it: 25 uM ATP, 1.5 nM JAK1; read-out: JAK1 enzymatic activity (Ki). An excerpt:
(§1) The catalytically active kinase domain of human JAK1, JAK2, JAK3 or TYK2 was purified from extracts of SF9 insect cells infected with a recombinant baculovirus expression vector encoding the human JAK1, JAK2, JAK3 or TYK2 kinase domains (JAK1 amino acid residues N852-D1154 according to the numbering of GenBank sequence accession number P23458, JAK2 amino acid residues D812-G1132 according to the numbering of GenBank sequence accession number NP_004963.1; JAK3 amino acid residues S783-S1124 according to the numbering of GenBank sequence accession number P52333, and TYK2 amino acid residues N873-C1187 according to the numbering of GenBank sequence accession number P29597). The activity of the JAK1, JAK2, JAK3 or TYK2 kinase domains can be measured by a number of direct and indirect methods, including quantification of phosphorylation of peptide substrates derived from the human JAK3 protein (Saltzman et al., Biochem. Biophys. Res. Commun. 246:627-633 (2004)). The activity of the JAK1, JAK2, JAK3 or TYK2 kinase domains was measured in vitro by monitoring phosphorylation of JAK3 derived peptides using the Caliper LabChip technology (see Examples).
(§2) The activity of the isolated JAK1, JAK2 or TYK2 kinase domain was measured by monitoring phosphorylation of a peptide derived from JAK3 ([…] fluorescently labeled on the N-terminus with 5-carboxyfluorescein using the Caliper LabChip technology (Caliper Life Sciences, Hopkinton, Mass.). […] Reactions were incubated at 22° C. in 384-well polypropylene microtiter plates for 30 minutes and then stopped by addition of 25 uL of an EDTA containing solution (100 mM Hepes pH 7.2, 0.015% Brij-35, 150 mM EDTA), resulting in a final EDTA concentration of 50 mM. After termination of the kinase reaction, the proportion of phosphorylated product was determined as a fraction of total peptide substrate using the Caliper LabChip 3000 according to the manufacturer's specifications. Ki values were then determined using the Morrison tight binding model. Morrison, J. F., Biochim. Biophys. Acta. 185:269-296 (1969); William, J. W. and Morrison, J. F., Meth. Enzymol., 63:437-467 (1979).

In the next assay the target is JAK2 kinase domain (Homo sapiens (Human), UniProt O60674). Nature of the assay: JAK2 inhibition assay (Caliper LabChip, isolated kinase domain). The settings on record: 25 uM ATP, 0.2 nM JAK2; read-out: JAK2 enzymatic activity (Ki).
JAK2 kinase domain, sequence (O60674 812-1132): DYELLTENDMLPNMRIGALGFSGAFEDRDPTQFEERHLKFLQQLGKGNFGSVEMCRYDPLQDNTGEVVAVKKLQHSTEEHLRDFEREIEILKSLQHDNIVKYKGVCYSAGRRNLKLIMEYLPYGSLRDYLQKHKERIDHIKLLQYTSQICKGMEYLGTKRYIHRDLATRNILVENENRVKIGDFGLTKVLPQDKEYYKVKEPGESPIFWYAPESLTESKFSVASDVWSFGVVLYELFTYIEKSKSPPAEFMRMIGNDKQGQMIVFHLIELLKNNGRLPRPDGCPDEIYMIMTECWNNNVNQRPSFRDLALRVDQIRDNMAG
Text: as §1, §2

For another assay, the target named is TYK2 kinase domain (Homo sapiens (Human), UniProt P29597). Briefly: TYK2 inhibition assay (Caliper LabChip, isolated kinase domain). The note with it: 25 uM ATP, 1 nM TYK2; read-out: TYK2 enzymatic activity (Ki).
TYK2 kinase domain, sequence (P29597 873-1187): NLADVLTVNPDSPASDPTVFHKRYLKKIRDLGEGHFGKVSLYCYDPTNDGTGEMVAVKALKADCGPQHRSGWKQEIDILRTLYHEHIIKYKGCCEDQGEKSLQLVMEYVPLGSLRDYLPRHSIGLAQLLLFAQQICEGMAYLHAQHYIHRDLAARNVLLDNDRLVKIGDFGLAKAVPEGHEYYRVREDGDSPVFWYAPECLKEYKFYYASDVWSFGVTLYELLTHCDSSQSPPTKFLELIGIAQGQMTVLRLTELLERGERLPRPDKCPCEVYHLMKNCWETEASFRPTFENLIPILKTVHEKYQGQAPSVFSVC
Text: as §1, §2

A further assay has as its target JAK3 kinase domain (Homo sapiens (Human), UniProt P52333). Nature of the assay: JAK3 inhibition assay (Caliper LabChip, isolated kinase domain). The settings on record: 5 uM ATP, 5 nM JAK3; read-out: JAK3 enzymatic activity (Ki).
Text: as §1, with “Previous studies have shown that the isolated kinase domains of human JAK1, JAK2, JAK3 or TYK2 phosphorylate peptide substrates in in vitro kinase assays (Saltzman et al., Biochem. Biophys. Res. Commun. 246:627-633 (2004)). The catalytically” for “The catalytically”
as §2, with “JAK3” for “JAK1, JAK2 or TYK2”

This is an account of results in patent US8999998B2, “Pyrazolopyrimidine JAK inhibitor compounds and methods” (Genentech, Inc., priority 2009, dated 2015).

JAK3 kinase domain, sequence (P52333 783-1124): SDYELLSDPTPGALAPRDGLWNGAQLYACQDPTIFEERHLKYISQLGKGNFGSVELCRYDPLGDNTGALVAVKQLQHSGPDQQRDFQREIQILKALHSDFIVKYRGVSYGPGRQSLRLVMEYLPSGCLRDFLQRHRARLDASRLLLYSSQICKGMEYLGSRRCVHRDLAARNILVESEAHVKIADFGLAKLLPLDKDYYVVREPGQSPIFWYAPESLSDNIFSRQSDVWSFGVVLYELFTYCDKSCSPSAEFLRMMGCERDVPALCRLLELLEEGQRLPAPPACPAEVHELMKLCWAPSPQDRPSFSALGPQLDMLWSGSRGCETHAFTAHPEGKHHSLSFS
JAK1 kinase domain, sequence (P23458 852-1154): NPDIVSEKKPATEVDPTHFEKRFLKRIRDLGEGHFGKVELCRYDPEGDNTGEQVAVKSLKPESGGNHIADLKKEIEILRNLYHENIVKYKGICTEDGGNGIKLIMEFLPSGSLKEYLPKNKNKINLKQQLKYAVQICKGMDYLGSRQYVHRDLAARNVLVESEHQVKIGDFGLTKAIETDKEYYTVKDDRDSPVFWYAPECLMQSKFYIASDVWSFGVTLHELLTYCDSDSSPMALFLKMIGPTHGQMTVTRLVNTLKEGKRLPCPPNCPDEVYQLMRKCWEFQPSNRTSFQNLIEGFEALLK

What is called Ki is a dissociation constant, usually derived from enzyme kinetics or from competition with a known ligand. `COc1ccc(Cl)cc1-c1nn(CC(=O)N2CC=CCC2)cc1NC(=O)c1cnn2cccnc12` [Example 300, N-(3-(5-chloro-2-methoxyphenyl)-1-(2-(5,6-dihydropyridin-1(2H)-yl)-2-oxoethyl)-1H-pyrazol-4-yl)pyrazolo[1,5-a]pyrimidine-3-carboxamide]: the inhibitory constant (Ki) worked out at 0.5 nM on JAK1 kinase domain, 2.5 nM on JAK2 kinase domain, 10 nM at TYK2 kinase domain and 170 nM at JAK3 kinase domain.

On to `COc1ccc(C#N)cc1-c1nn(CC2(O)CCCC2)cc1NC(=O)c1cnn2cccnc12` [Example 359, N-(3-(5-cyano-2-methoxyphenyl)-1-((1-hydroxycyclopentyl)methyl)-1H-pyrazol-4-yl)pyrazolo[1,5-a]pyrimidine-3-carboxamide], for which the Ki at JAK1 kinase domain turned out to be 1 nM; on JAK2 kinase domain, 4.2 nM; on TYK2 kinase domain it was 46 nM; at JAK3 kinase domain, 690 nM.

For the compound `COc1ccc(F)cc1-c1nn(CC2(O)CCOCC2)cc1NC(=O)c1cnn2cccnc12` [Example 364, N-(3-(5-fluoro-2-methoxyphenyl)-1-((4-hydroxytetrahydro-2H-pyran-4-yl)methyl)-1H-pyrazol-4-yl)pyrazolo[1,5-a]pyrimidine-3-carboxamide], the Ki at JAK1 kinase domain worked out at 2.3 nM; at JAK2 kinase domain it was 6.2 nM; at TYK2 kinase domain, 47 nM; at JAK3 kinase domain, 710 nM.

As for `CC1CCCCN1c1nn(CC(C)(C)O)cc1NC(=O)c1cnn2cccnc12` (stereo not shown) [Example 379, N-(1-(2-hydroxy-2-methylpropyl)-3-(2-methylpiperidin-1-yl)-1H-pyrazol-4-yl)pyrazolo[1,5-a]pyrimidine-3-carboxamide], the Ki on JAK1 kinase domain was determined as 85.9 nM; on JAK2 kinase domain, 26.3 nM; on TYK2 kinase domain it was 410 nM; on JAK3 kinase domain it was 240 nM.

For the compound `N#CC1CCN(c2n[nH]cc2NC(=O)c2cnn3cccnc23)CC1` [Example 395, N-(3-(4-cyanopiperidin-1-yl)-1H-pyrazol-4-yl)pyrazolo[1,5-a]pyrimidine-3-carboxamide], the inhibitory constant (Ki) was determined as 176 nM on JAK1 kinase domain, 31.3 nM at JAK2 kinase domain, 230 nM at TYK2 kinase domain and 390 nM at JAK3 kinase domain.

With `COc1ccc(Cl)cc1-c1nn(CC(O)(C(F)(F)F)C(F)(F)F)cc1NC(=O)c1cnn2cccnc12` [Example 432, N-(3-(5-chloro-2-methoxyphenyl)-1-(3,3,3-trifluoro-2-hydroxy-2-(trifluoromethyl)propyl)-1H-pyrazol-4-yl)pyrazolo[1,5-a]pyrimidine-3-carboxamide], the inhibition constant Ki at JAK1 kinase domain came out at 1.5 nM; at JAK2 kinase domain, 5.7 nM; on TYK2 kinase domain, 31 nM; on JAK3 kinase domain, 570 nM.

Consider `COc1ncc(Cl)cc1-c1nn(CC(=O)N(C)C)cc1NC(=O)c1cnn2cccnc12` [Example 499, N-(3-(5-chloro-2-methoxypyridin-3-yl)-1-(2-(dimethylamino)-2-oxoethyl)-1H-pyrazol-4-yl)pyrazolo[1,5-a]pyrimidine-3-carboxamide], for which the inhibition constant Ki turned out to be 1.6 nM at JAK1 kinase domain, 5.8 nM on JAK2 kinase domain, 14 nM at TYK2 kinase domain and 780 nM at JAK3 kinase domain.
